Results reported in patent US20260041661A1, “THREE-COMPONENT PRODRUG, PHARMACEUTICAL COMPOSITION THEREOF, AND MEDICAL USE THEREOF” (J2H BIOTECH INC., priority 2022, published 2026).
Counter-ions that a name gives are not always drawn.

Assays:
[1] = tested on: EAE mice (experimental autoimmune encephalomyelitis); assay: Efficacy in EAE animal model of multiple sclerosis: clinical score; format: in vivo, C57BL/6 mice; conditions: for Clinical Score (Day 21): day 2-21, score 0 to 5, vehicle group 3.2
[2] = tested on: CD4 T cells, CD8 T cells, Th1 cells and Th17 cells; assay: Immune cell infiltration in EAE mice by flow cytometry; format: in vivo, C57BL/6 mice; conditions: for CD8 T Cell (%) / CD4 T Cell (%): tissue not given; for CD8 T Cell (%): vehicle group 16.0; for CD4 T Cell (%): vehicle group 23.2; for Th17 Cell (%): vehicle group 12.4; for Th1 Cell (%): vehicle group 15.4
prostaglandin D2 (PGD2) = assay: Toxicity evaluation: flushing side effect by blood prostaglandin D2 concentration (ELISA); format: in vivo; conditions: C57BL6 male mice, 165.6 mg/kg vs DMF 60 mg/kg, 5 minutes after administration
Procedure: The flushing phenomenon was confirmed through analysis of the concentration of prostaglandin D2 (PGD2) in the blood. PGD2 is a bio-derived substance closely related to the flushing phenomenon, and the concentration analysis of PGD2 in the blood is known as a standard test method for predicting the side effects of drugs. (The journal of pharmacology and experimental therapeutics, 2008, 327(3), 665.) The test method was conducted by dividing C57BL6 male mice into three groups as test animals. […] PGD2 present in the collected blood was measured using an Elisa kit (#CSB-E14022m, CUSABIO).

[3] = cited from earlier work
[4] = RRMS patients, DRF 462 mg twice daily for 5 weeks; cited from earlier work
[5] = EVOLVE-MS-1 phase 3 clinical program

SMILES: COC(=O)/C=C/C(=O)OC [Dimethyl fumarate]
- Clinical Score (Day 21) ([1]; DMF 30 mpk oral twice a day): 2.3
- Clinical Score (Day 21) ([1]; DMF 60 mpk oral twice a day): 1.3
- Severity of the disease (clinical score) vs negative control ([1]; low (G3, 30 mg/kg) and high (G4, 60 mg/kg) dose): significantly reduced the severity of the disease
- CD8 T Cell (%) ([2]; DMF 30 mpk): 8.8%
- CD4 T Cell (%) ([2]; DMF 30 mpk): 13.1%
- Th17 Cell (%) ([2]; DMF 30 mpk): 10.1%
- Th1 Cell (%) ([2]; DMF 30 mpk): 10.2%
- CD8 T Cell (%) ([2]; DMF 60 mpk): 8.5%
- CD4 T Cell (%) ([2]; DMF 60 mpk): 13.8%
- Th17 Cell (%) ([2]; DMF 60 mpk): 6.3%
- Th1 Cell (%) ([2]; DMF 60 mpk): 7.9%

SMILES: COC(=O)/C=C/C(=O)Oc1ccc(COC(=O)c2ccccc2OC(C)=O)cc1 [Example 1, 4-((acetoxybenzoyloxy)methyl)phenyl Methyl Fumarate]
- Clinical Score (Day 21) ([1]; chemical formula 1 82.8 mpk oral twice a day): 2.0
- Clinical Score (Day 21) ([1]; chemical formula 1 165.6 mpk oral twice a day): 1.5
- Clinical score improvement ([1]; low dose (G5, 82.8 mg/kg) and high dose (G6, 165.6 mg/kg)): significant clinical score improvement effects
- Decrease of blood PGD2 compared to the group administered with dimethyl fumarate (prostaglandin D2 (PGD2)): 76.6%
- Infiltration rate of CD4 and CD8 T cells in the lymph nodes compared to disease-induced group (G2) ([2]; FIG. 1, low-dose (G5) and high-dose (G6)): significant decrease
- Infiltration rate of CD4 and CD8 T cells in the central nervous system compared to disease-induced group (G2) ([2]; FIG. 2, low-dose (G5) and high-dose (G6)): significant decrease
- Infiltration rate of Th1 and Th17 cells in the lymph nodes compared to disease-induced group (G2) ([2]; FIG. 3, low-dose (G5) and high-dose (G6)): decrease
- CD8 T Cell (%) ([2]; chemical formula 1 82.8 mpk): 7.8%
- CD4 T Cell (%) ([2]; chemical formula 1 82.8 mpk): 11.2%
- Th17 Cell (%) ([2]; chemical formula 1 82.8 mpk): 8.8%
- Th1 Cell (%) ([2]; chemical formula 1 82.8 mpk): 8.8%
- CD8 T Cell (%) ([2]; chemical formula 1 165.6 mpk): 4.7%
- CD4 T Cell (%) ([2]; chemical formula 1 165.6 mpk): 6.5%
- Th17 Cell (%) ([2]; chemical formula 1 165.6 mpk): 7.5%
- Th1 Cell (%) ([2]; chemical formula 1 165.6 mpk): 6.4%

SMILES: COC(=O)/C=C/C(=O)OCCN1C(=O)CCC1=O [diroximel fumarate]
- Subjects who discontinued administration [3, 5]: 14.9%
- Subjects who discontinued due to drug-induced side effects [3, 5]: 6.3%
- Incidence of gastrointestinal side effects (GI TEAEs) ([3]; all patients administered DRF, phase 3 clinical trials): more than 30%
- Decrease of incidence of gastrointestinal side effects compared to DMF group ([3]; phase 3 clinical trials, vs the 40% incidence with DMF): 10%
- Diarrhea, frequency reported [4]: 15.4%
- Flushing, frequency reported [4]: 32.8%
- Nausea, frequency reported [4]: 14.6%
